Measurements taken from US11197863B2, “Inhibitors of polo-like kinase 4 (PLK4) for treating pediatric embryonal tumors” (ANN AND ROBERT H. LURIE CHILDREN'S HOSPITAL OF CHICAGO, priority 2017, dated 2021).
Read-outs that look alike come from different tables or passages of the source.

How the values were obtained:
[1] = test system: BT-16 cells; assay: Combination therapy viability assay; type: cell-based; conditions: Homo sapiens, BT-16, 72 h, read-out: IC50 of compound 2
[2] = test system: DAOY cells; assay: Combination therapy viability assay; conditions: Homo sapiens, 72 h
[3] = test system: MON cells; assay: Combination therapy viability assay; type: cell-based; conditions: Homo sapiens, 72 h, read-out: IC50 of compound 2
[4] = children, single agent; cited from earlier work
[5] = test system: rhabdoid mouse xenograft models; conditions: in vivo; cited from earlier work
[6] = test system: rhabdoid tumor cell lines; conditions: inhibition of ERBB2; cited from earlier work
[7] = combined with CFI-400945 (5 nM)
[8] = combined with CFI-400945 (10 nM)
[9] = read-out: IC50 of compound 2, DAOY, combined with CFI-400945 (5 nM)
[10] = read-out: IC50 of compound 2, DAOY, combined with CFI-400945 (10 nM)

Row | IC50 [1, 7] [nM] | IC50 [1, 8] [nM] | Compound | IC50 [2, 9] [nM] | IC50 [2, 10] [nM] | IC50 [3, 7] [nM] | IC50 [3, 8] [nM] | clinical activity [4] | response rates [5] | cell migration and apoptosis [6]
1 | 566 | 576 | COc1cccc2c1C(=O)c1c(O)c3c(c(O)c1C2=O)C[C@@](O)(C(=O)CO)C[C@@H]3O[C@H]1C[C@H](N)[C@H](O)[C@H](C)O1 [Doxorubicin, doxorubicin] | 168 | 199 | 74 | 57 |  |  | 
2 | 593 | 6 | COc1cc([C@@H]2c3cc4c(cc3[C@@H](O[C@@H]3O[C@@H]5CO[C@@H](C)O[C@H]5[C@H](O)[C@H]3O)[C@H]3COC(=O)[C@H]23)OCO4)cc(OC)c1O [Etoposide, etoposide] | 494 | 800 | 292 | 266 |  |  | 
3 |  |  | COc1cc(Nc2ncc3c(n2)-c2ccc(Cl)cc2C(c2c(F)cccc2OC)=NC3)ccc1C(=O)O [alisertib] |  |  |  |  | active as a single agent | high response rates | 
4 |  |  | CS(=O)(=O)CCNCc1ccc(-c2ccc3ncnc(Nc4ccc(OCc5cccc(F)c5)c(Cl)c4)c3c2)o1 [lapatinib] |  |  |  |  |  |  | significant impairment of cell migration and initiation of apoptosis
